We go through four molecules from patent US20230233569A1 (Revolution Medicines, Inc., priority 2020, published 2023).

For experiment [1], the target named is KRAS G12V (Homo sapiens, UniProt P01116+P62937, G12V). The experiment can be described thus: Disruption of BRAF RBD interaction with Ras (FRET / MOA assay, with Cyclophilin A). Format: biochemical. The text has this: (§1) This protocol may also be executed substituting other Ras proteins or nucleotides.
(§2) The purpose of this biochemical assay was to measure the ability of test compounds to facilitate ternary complex formation between a nucleotide-loaded K-Ras isoform and Cyclophilin A; the resulting ternary complex disrupts binding to a BRAF^RBD construct, inhibiting K-Ras signaling through a RAF effector. Data is reported as IC50 values.
(§3) Compound was present in plate wells as a 10-point 3-fold dilution series starting at a final concentration of 30 μM. After incubation at 25° C. for 3 hours, a mixture of Anti-His Eu-W1024 and anti-GST allophycocyanin was then added to assay sample wells at final concentrations of 10 nM and 50 nM, respectively, and the reaction incubated for an additional 1.5 hours. […] Compounds that facilitate disruption of a K-Ras:RAF complex were identified as those eliciting a decrease in the TR-FRET ratio relative to DMSO control wells.
(§4) The purpose of this biochemical assay was to measure the ability of test compounds to facilitate ternary complex formation between a nucleotide-loaded K-Ras isoform and Cyclophilin A; the resulting ternary complex disrupts binding to a BRAF^RBDD construct, inhibiting K-Ras signaling through a RAF effector. Data is reported as IC50 values.

Experiment [2] addresses KRAS G12C (Homo sapiens, UniProt P01116+P62937, G12C). Described as above. It counts as biochemical.
Description: as §1, §2, §3, §4

In experiment [3] the target is KRAS G13C (Homo sapiens, UniProt P01116+P62937, G13C). The experiment is described as above. It counts as biochemical.
Description: as §1, §2, §3, §4

The target in experiment [4] is KRAS G13D (Homo sapiens, UniProt P01116+P62937, G13D). The experiment is described as above. Format: biochemical.
Description: as §1, §2, §3, §4

The target in experiment [5] is KRAS WT (Homo sapiens, UniProt P01116+P62937). The description is as above. Format: biochemical.
Description: as §1, §2, §3, §4

Experiment [6] deals with KRAS G12S (Homo sapiens, UniProt P01116+P62937, G12S). The description is as above. It counts as biochemical.
Description: as §1, §2, §3, §4

The target in experiment [7] is KRAS G12D (Homo sapiens, UniProt P01116+P62937, G12D). Described as above. Format: biochemical.
Description: as §1, §2, §3, §4

Experiment [8] deals with NRAS G12C (Homo sapiens, UniProt P01111+P62937, G12C). Described as above. It counts as biochemical.
Description: as §1, §2, §3, §4

Experiment [9] relates to NCI-H358 (K-Ras G12C). Put plainly: CellTiter-Glo cell viability assay, 5-day treatment. It counts as cell-based. The settings on record: Homo sapiens, NCI-H358, 120 h, 5-day treatment; read-out: H358 Cell Viability assay data (K-Ras G12C, IC50). The protocol:
Protocol: CellTiter-Glo® Cell Viability Assay
Note—The following protocol describes a procedure for monitoring cell viability of K-Ras mutant cancer cell lines in response to a compound of the invention. Other RAS isoforms may be employed, though the number of cells to be seeded will vary based on cell line used.
Test compounds (132.5 nL) were directly dispensed into the assay plates containing cells. […] On day 5, assay plates and their contents were equilibrated to room temperature for approximately 30 minutes. […] Luminescence was measured using the PerkinElmer Enspire. Data were normalized by the following: (Sample signal/Avg. DMSO)*100. The data were fit using a four-parameter logistic fit.
Test compounds (132.5 nl) were directly dispensed into the assay plates containing cells. […] On day 5, assay plates and their contents were equilibrated to room temperature for approximately 30 minutes. […] Luminescence was measured using the PerkinElmer Enspire. Data were normalized by the following: (Sample signal/Avg. DMSO)*100. The data were fit using a four-parameter logistic fit.

The mark [10] stands for this setting: KRAS G12V FRET data IC50, KRAS G12V.
Setting [11] is: KRAS G13D FRET data IC50, KRAS G13D.
Where [12] appears, read: KRAS WT FRET data IC50, KRAS WT.
[13] abbreviates: NRAS G12C FRET data IC50, NRAS G12C.
[14] abbreviates: KRAS G12V, read-out: KRAS G12V FRET data IC50.
Setting [15] is: read-out: KRAS G12C FRET data, IC50.
Setting [16] is: read-out: KRAS G13C FRET data, IC50.
Where [17] appears, read: KRAS G13D, read-out: KRAS G13D FRET data IC50.
The mark [18] stands for this setting: KRAS WT, read-out: KRAS WT FRET data IC50.
Where [19] appears, read: read-out: KRAS G12S FRET data, IC50.
The mark [20] stands for this setting: read-out: KRAS G12D FRET data, IC50.
Setting [21] is: NRAS G12C, read-out: NRAS G12C FRET data IC50.

Where two headings read alike, the source gives them in different places. Where only a bound is given, the exact number is not on record here.

As usually defined, the IC50 is the midpoint of a concentration-inhibition curve.

KRAS G12C, sequence (P01116 1-169 isoform P01116-2 G12C): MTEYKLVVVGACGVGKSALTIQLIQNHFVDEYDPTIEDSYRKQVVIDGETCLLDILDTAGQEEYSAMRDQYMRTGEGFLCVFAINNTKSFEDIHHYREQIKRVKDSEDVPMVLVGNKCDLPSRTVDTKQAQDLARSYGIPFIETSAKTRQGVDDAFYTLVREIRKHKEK
KRAS G12C, sequence (P62937 whole entry): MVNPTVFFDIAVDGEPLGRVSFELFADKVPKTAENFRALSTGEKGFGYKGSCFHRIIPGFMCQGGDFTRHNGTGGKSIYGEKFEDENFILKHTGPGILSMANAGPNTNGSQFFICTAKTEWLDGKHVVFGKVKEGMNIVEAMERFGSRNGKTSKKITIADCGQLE
NRAS G12C, sequence (P01111 whole entry G12C): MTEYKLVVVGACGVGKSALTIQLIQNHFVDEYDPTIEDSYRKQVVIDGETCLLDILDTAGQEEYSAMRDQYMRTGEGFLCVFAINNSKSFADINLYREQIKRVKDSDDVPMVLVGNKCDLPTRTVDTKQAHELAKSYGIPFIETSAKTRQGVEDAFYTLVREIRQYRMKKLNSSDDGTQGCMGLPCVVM
NRAS G12C, sequence (P62937 whole entry): as the sequence (P62937 whole entry) above
KRAS G12S, sequence (P01116 1-169 isoform P01116-2 G12S limits assumed): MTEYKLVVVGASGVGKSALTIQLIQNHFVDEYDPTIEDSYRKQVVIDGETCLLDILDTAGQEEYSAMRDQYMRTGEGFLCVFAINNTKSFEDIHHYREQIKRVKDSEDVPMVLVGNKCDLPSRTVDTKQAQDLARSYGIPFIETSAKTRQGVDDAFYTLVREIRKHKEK
KRAS G12S, sequence (P62937 whole entry): as the sequence (P62937 whole entry) above
KRAS G13D, sequence (P01116 1-169 isoform P01116-2 G13D limits assumed): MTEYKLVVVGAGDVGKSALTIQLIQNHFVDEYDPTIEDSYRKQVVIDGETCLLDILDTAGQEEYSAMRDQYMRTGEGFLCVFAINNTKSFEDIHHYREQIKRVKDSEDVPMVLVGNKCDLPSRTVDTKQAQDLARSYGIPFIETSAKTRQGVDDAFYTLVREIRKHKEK
KRAS G13D, sequence (P62937 whole entry): as the sequence (P62937 whole entry) above
KRAS G12D, sequence (P01116 1-169 isoform P01116-2 G12D limits assumed): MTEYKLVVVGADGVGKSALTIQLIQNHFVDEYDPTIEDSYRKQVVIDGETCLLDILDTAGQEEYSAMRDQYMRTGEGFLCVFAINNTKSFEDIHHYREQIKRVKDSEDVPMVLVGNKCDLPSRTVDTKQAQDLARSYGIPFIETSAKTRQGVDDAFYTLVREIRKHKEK
KRAS G12D, sequence (P62937 whole entry): as the sequence (P62937 whole entry) above
KRAS WT, sequence (P01116 1-169 isoform P01116-2 limits assumed): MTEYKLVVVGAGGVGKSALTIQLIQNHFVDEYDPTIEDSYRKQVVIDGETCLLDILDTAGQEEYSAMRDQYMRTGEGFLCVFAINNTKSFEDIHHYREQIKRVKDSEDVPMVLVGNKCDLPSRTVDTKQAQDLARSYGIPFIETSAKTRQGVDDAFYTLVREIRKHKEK
KRAS WT, sequence (P62937 whole entry): as the sequence (P62937 whole entry) above
KRAS G12V, sequence (P01116 1-169 isoform P01116-2 G12V limits assumed): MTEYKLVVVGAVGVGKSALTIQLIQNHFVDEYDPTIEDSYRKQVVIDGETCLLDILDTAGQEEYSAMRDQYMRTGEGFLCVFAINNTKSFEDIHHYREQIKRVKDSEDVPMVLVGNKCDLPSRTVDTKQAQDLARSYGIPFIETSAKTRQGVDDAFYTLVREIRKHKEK
KRAS G12V, sequence (P62937 whole entry, canonical isoform): as the sequence (P62937 whole entry) above
KRAS G13C, sequence (P01116 1-169 isoform P01116-2 G13C): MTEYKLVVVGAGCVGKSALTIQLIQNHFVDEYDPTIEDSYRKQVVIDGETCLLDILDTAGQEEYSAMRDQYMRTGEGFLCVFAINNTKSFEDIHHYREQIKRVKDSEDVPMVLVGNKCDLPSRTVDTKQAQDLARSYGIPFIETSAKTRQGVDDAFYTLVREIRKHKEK
KRAS G13C, sequence (P62937 whole entry): as the sequence (P62937 whole entry) above

Consider `CCn1c(-c2cnccc2COC)c2c3cc(ccc31)-c1cc(O)cc(c1)C[C@H](NC(=O)[C@H](C(C)C)N(C)C(=O)[C@H]1CCN(CCO)C1)C(=O)N1CCC[C@H](N1)C(=O)OCC(C)(C)C2` [Example A23, (2S)—N-[(8S,14S)-22-ethyl-4-hydroxy-21-[4-(methoxymethyl)pyridin-3-yl]-18,18-dimethyl-9,15-dioxo-16-oxa-10,22,28-triazapentacyclo[18.5.2.1^2,6.1^10,14.0^23,27]nonacosa-1(26),2,4,6(29),20,23(27),24-heptaen-8-yl]-2-{1-[(3S)-1-(2-hydroxyethyl)pyrrolidin-3-yl]-N-methylformamido}-3-methylbutanamide], for which the IC50 was 1000 to 10000 nM in [1] (setting [10]); 100 to 1000 nM in experiment [2] (KRAS G12C FRET data, IC50); 10 to 100 nM in experiment [3] (KRAS G13C FRET data, IC50); 10 to 100 nM in experiment [4] (setting [11]); 10 to 100 nM in [5] (setting [12]); 100 to 1000 nM in [6] (KRAS G12S FRET data, IC50). The IC50 is 100 to 1000 nM in experiment [7] (KRAS G12D FRET data, IC50); 100 to 1000 nM in experiment [8] (setting [13]); 1000 to 10000 nM in [9].

With `CCn1c(-c2cnccc2COC)c2c3cc(ccc31)-c1cc(O)cc(c1)C[C@H](NC(=O)[C@H](C(C)C)N(C)C(=O)[C@H]1CCN(C)C1)C(=O)N1CCC[C@H](N1)C(=O)OCC(C)(C)C2` [Example A27, (2S)—N-[(8S,14S)-22-ethyl-4-hydroxy-21-[4-(methoxymethyl)pyridin-3-yl]-18,18-dimethyl-9,15-dioxo-16-oxa-10,22,28-triazapentacyclo[18.5.2.1^2,6.1^10,14.0^23,27]nonacosa-1(26),2,4,6(29),20,23(27),24-heptaen-8-yl]-3-methyl-2-{N-methyl-1-[(3S)-1-methylpyrrolidin-3-yl]formamido}butanamide], the IC50 fell in the range of 1000 to 10000 nM in experiment [1] (setting [10]); 100 to 1000 nM in experiment [2] (KRAS G12C FRET data, IC50); 10 to 100 nM in [3] (KRAS G13C FRET data, IC50); 10 to 100 nM in experiment [4] (setting [11]); 100 to 1000 nM in experiment [5] (setting [12]); 100 to 1000 nM in experiment [6] (KRAS G12S FRET data, IC50). Moreover, the IC50 in [7] (KRAS G12D FRET data, IC50) was 100 to 1000 nM; in [8] (setting [13]), 100 to 1000 nM; in [9], 1000 to 10000 nM.

Regarding `CCn1c(-c2cccnc2COC)c2c3cc(ccc31)-c1cc(O)cc(c1)C[C@H](NC(=O)[C@H](C(C)C)N(C)C(=O)[C@H]1CCNC1)C(=O)N1CCC[C@H](N1)C(=O)OCC(C)(C)C2` [Example A32], the IC50 in experiment [1] (setting [14]) was 1000 to 10000 nM; in experiment [2] (setting [15]), 100 to 1000 nM; in experiment [3] (setting [16]) it was 100 to 1000 nM; in [4] (setting [17]), 100 to 1000 nM; in [5] (setting [18]), 100 to 1000 nM; in experiment [6] (setting [19]) it was 100 to 1000 nM. In addition, the IC50 is 100 to 1000 nM in experiment [7] (setting [20]), 100 to 1000 nM in [8] (setting [21]) and more than 10000 nM in experiment [9].

`CCn1c(-c2cnccc2COC)c2c3cc(ccc31)-c1cc(O)cc(c1)C[C@H](NC(=O)[C@H](C(C)C)N(C)C(=O)[C@H]1CCN(S(=O)(=O)N3CC(N)C3)C1)C(=O)N1CCC[C@H](N1)C(=O)OCC(C)(C)C2` [Example A35]: the IC50 in experiment [1] (setting [14]), in [2] (setting [15]), in [3] (setting [16]), in experiment [4] (setting [17]), in experiment [5] (setting [18]) and in experiment [6] (setting [19]) was 100 to 1000 nM in each case. In addition, the results for the IC50 in experiment [7] (setting [20]), in [8] (setting [21]) and in [9] were 1000 to 10000 nM, 100 to 1000 nM and 100 to 1000 nM, respectively.
